{"source": "patent US6906007B2", "about": "“Phenyl-substituted 5,6-dihydropyrone derivatives for use as pesticides and herbicides” (Bayer CropScience AG, priority 2000, dated 2005)", "format_in_all_cases": "in vivo", "key": {"[1]": {"test_system": "Meloidogyne incognita", "test": "Meloidogyne test (Example A)", "settings": "20 ppm active compound, gall formation on lettuce roots", "experimental": "(§1) Meloidogyne Test Solvent: 30 parts by weight of dimethylformamide Emulsifier: 1 part by weight of alkylaryl polyglycol ether To produce a suitable preparation of active compound, 1 part by weight of active compound is mixed with the stated amounts of solvent and emulsifier, and the concentrate is diluted with water to the desired concentration. Containers are filled with sand, solution of active compound, Meloidogyne incognita egg/larvae suspension and lettuce seeds. The lettuce seeds germinate and the plants develop. On the roots, galls are formed. After the desired period of time, the nematicidal action in % is determined using the formation of galls as a measure. 100% means that no galls have been found; 0% means that the number of galls on the treated plants corresponds to that on the untreated control."}, "[2]": {"test_system": "Sphaerotheca fuliginea", "test": "Sphaerotheca test (cucumber)/protective", "settings": "750 g/ha, protective, evaluation 7 days after inoculation", "experimental": "Sphaerotheca Test (Cucumber)/Protective\nSolvent: 48.8 parts by weight of N,N-dimethylformamide\nEmulsifier: 1.2 parts by weight of alkylaryl polyglycol ether\n(§2) To produce a suitable preparation of active compound, 1 part by weight of active compound is mixed with the stated amounts of solvent and emulsifier, and the concentrate is diluted with water to the desired concentration.\nTo test for protective activity, young cucumber plants are sprayed with the preparation of active compound at the stated application rate. 1 day after the treatment, the plants are inoculated with a spore suspension of Sphaerotheca fuliginea. The plants are then placed in a greenhouse at 70% relative atmospheric humidity and a temperature of 23° C.\nEvaluation is carried out 7 days after the inoculation. 0% means an efficacy which corresponds to that of the control, whereas an efficacy of 100% meais that no infection is observed."}, "[3]": {"test_system": "caterpillars of the army worm (Spodoptera frugiperda)", "test": "Spodoptera frugiperda test", "settings": "1000 ppm, cabbage leaves dipped", "experimental": "(§3) Spodoptera frugiperda Test Solvent: 30 parts by weight of dimethylformamide Emulsifier: 1 part by weight of alkylaryl polyglycol ether To produce a suitable preparation of active compound, 1 part by weight of active compound is mixed with the stated amounts of solvent and emulsifier, and the concentrate is diluted with water to the desired concentration. Cabbage leaves (Brassica oleracea) are treated by being dipped into the preparation of active compound of the desired concentration and are populated with caterpillars of the army worm (Spodoptera frugiperda) while the leaves are still moist. After the desired period of time, the kill in % is determined. 100% means that all of the caterpillars have been killed; 0%. means that none of the caterpillars has been killed. In this test, for example, the following compounds of the Preparation Examples show good activity."}, "[4]": {"test_system": "larvae of the mustard beetle (Phaedon cochleariae)", "test": "Phaedon larvae test", "settings": "1000 ppm, cabbage leaves dipped", "experimental": "as §3, with “Phaedon larvae Test” for “Spodoptera frugiperda Test”, “with larvae” for “with caterpillars”, “the mustard beetle (Phaedon cochleariae)” for “the army worm (Spodoptera frugiperda)”, “the beetle larvae” for “the caterpillars”, “been killed. 0%” for “been killed; 0%.”"}, "[5]": {"test_system": "greenhouse red spider mite (Tetranychus urticae)", "test": "Tetranychus test (OP-resistant/dip treatment)", "settings": "bean plants dipped", "experimental": "Tetranychus Test (OP-Resistant/Dip Treatment)\nSolvent: 30 parts by weight of dimethylformamide\nEmulsifier: 1 part by weight of alkylaryl polyglycol ether\nas §2\nBean plants (Phaseolus vulgaris) which are heavily infested by all stages of the greenhouse red spider mite (Tetranychus urticae) are dipped into a preparation of active compound of the desired concentration.\nAfter the desired period of time, the effect in % is determined. 100% means that all of the spider mites have been killed, 0% means that none of the spider mites has been killed.\nIn this test, for example, the following compounds of the Preparation Examples show good activity."}, "[6]": {"test_system": "peach aphid (Myzus persicae)", "test": "Myzus test", "settings": "1000 ppm, cabbage leaves dipped", "experimental": "as §3, with “Myzus Test” for “Spodoptera frugiperda Test”, “oleracea) which are heavily infested by the peach aphid (Myzus persicae)” for “oleracea)”, “into a” for “into the”, “desired concentration.” for “desired concentration and are populated with caterpillars of the army worm (Spodoptera frugiperda) while the leaves are still moist.”, “the aphids” for “the caterpillars”, “been killed: 0%” for “been killed; 0%.”"}, "[7]": {"test_system": "fruit tree red spider mite (Panonychus ulmi)", "test": "Panonychus test", "settings": "200 ppm, plum trees sprayed", "experimental": "Panonychus Test Solvent: 3 parts by weight of dimethylformamide Emulsifier: 1 part by weight of alkylaryl polyglycol ether To produce a suitable preparation of active compound, 1 part by weight of active compound is mixed with the stated amounts of solvent and emulsifier, and the concentrate is diluted with water to the desired concentration. Plum trees (Prunus domestica), of a height of approximately 30 cm, which are heavily infested by all stages of the fruit tree red spider mite (Panonychus ulmi) are sprayed with a preparation of active compound of the desired concentration. After the desired period of time, the effect in % is determined. 100% means that all of the spider mites have been killed: 0% means that none of the spider mites has been killed."}, "[8]": {"test_system": "Meloidogyne incognita", "test": "Meloidogyne test (Example G)", "settings": "20 ppm; gall formation on lettuce roots", "experimental": "as §1, with “Test Solvent: 8 parts by” for “Test Solvent: 30 parts by”, “of active compound. Meloidogyne incognita” for “of active compound, Meloidogyne incognita”"}}}
{"smiles": "Cc1cc(-c2ccc(Cl)cc2)cc(C)c1C1=C(OC(=O)C(C)C)C(C)(C)C(C)(C)OC1=O", "note": "[Ex. I-A-b-1]", "values": [{"measurement": "Kill rate in % after 14d", "setting": "[1]", "result": 100, "unit": "%"}]}
{"smiles": "COC1OC(=O)C(c2ccc(Cl)cc2C)=C(OC(C)=O)C1(C)C", "note": "(centres unmarked) [Ex. I-A-b-3]", "values": [{"measurement": "Efficacy in %", "setting": "[2]", "result": 80, "unit": "%"}]}
{"smiles": "Cc1ccc(-c2ccc(Cl)cc2)cc1C1=C(OC(=O)C(C)C)C(C)(C)C(C)(C)OC1=O", "note": "[Ex. I-A-b-10]", "values": [{"measurement": "Kill rate in % after 14d", "setting": "[1]", "result": 100, "unit": "%"}, {"measurement": "Kill rate in % after 7d", "setting": "[3]", "result": 100, "unit": "%"}, {"measurement": "Kill rate in % after 7d", "setting": "[4]", "result": 100, "unit": "%"}]}
{"smiles": "Cc1cc(-c2ccc(Cl)cc2)cc(C)c1C1=C(OC(=O)C(C)C)C(C)(C)COC1=O", "note": "[Ex. I-A-b-11]", "values": [{"measurement": "Kill rate in % after 7d", "setting": "[4]", "result": 100, "unit": "%"}]}
{"smiles": "Cc1ccc(-c2ccc(Cl)cc2)cc1C1=C(OC(=O)OC(C)C)C(C)(C)C(C)(C)OC1=O", "note": "[Ex. I-A-c-3]", "values": [{"measurement": "Kill rate in % after 7d", "setting": "[5]; 0.01 ppm", "result": 100, "unit": "%"}, {"measurement": "Kill rate in % after 7d", "setting": "[4]", "result": 90, "unit": "%"}]}
{"smiles": "COC1OC(OC(C)=O)=C(c2ccc(Cl)cc2C)C(=O)C1(C)C", "note": "(centres unmarked) [Ex. I-B-b-13]", "values": [{"measurement": "Efficacy in %", "setting": "[2]", "result": 70, "unit": "%"}]}
{"smiles": "Cc1cc(C)c(C2=C(OC(=O)C(C)C)OC(C)(C)C(C)(C)C2=O)c(C)c1", "note": "[Ex. I-B-b-16]", "values": [{"measurement": "Kill rate in % after 7d", "setting": "[5]; 100 ppm", "result": 100, "unit": "%"}]}
{"smiles": "Cc1cc(C)c(C2=C(OC(=O)C(C)C)OCC(C)(C)C2=O)c(C)c1", "note": "[Ex. I-B-b-17]", "values": [{"measurement": "Kill rate in % after 7d", "setting": "[5]; 100 ppm", "result": 100, "unit": "%"}, {"measurement": "Kill rate in % after 14d", "setting": "[1]", "result": 90, "unit": "%"}]}
{"smiles": "Cc1cc(C)c(C2=C(OC(=O)OC(C)C)OCC(C)(C)C2=O)c(C)c1", "note": "[Ex. I-B-c-1]", "values": [{"measurement": "Kill rate in % after 7d", "setting": "[5]; 100 ppm", "result": 100, "unit": "%"}, {"measurement": "Kill rate in % after 14d", "setting": "[1]", "result": 90, "unit": "%"}]}
{"smiles": "Cc1cc(-c2ccc(Cl)cc2)cc(C)c1C1=C(O)C(C)(C)C(C)(C)OC1=O", "note": "[Ex. I-a-1]", "values": [{"measurement": "Kill rate in % after 7d", "setting": "[4]", "result": 100, "unit": "%"}]}
{"smiles": "Cc1ccc(-c2ccc(Cl)cc2)cc1C1=C(O)C(C)(C)COC1=O", "note": "[Ex. I-a-5]", "values": [{"measurement": "Kill rate in % after 6d", "setting": "[6]", "result": 95, "unit": "%"}, {"measurement": "Kill rate in % after 14d", "setting": "[1]", "result": 100, "unit": "%"}, {"measurement": "Kill rate in % after 7d", "setting": "[4]", "result": 100, "unit": "%"}]}
{"smiles": "Cc1ccc(-c2ccc(Cl)cc2)cc1C1=C(O)C(C)(C)C(C)(C)OC1=O", "note": "[Ex. I-a-6]", "values": [{"measurement": "Kill rate in % after 7d", "setting": "[5]; 100 ppm", "result": 100, "unit": "%"}, {"measurement": "Kill rate in % after 6d", "setting": "[6]", "result": 95, "unit": "%"}, {"measurement": "Kill rate in % after 14d", "setting": "[7]", "result": 100, "unit": "%"}, {"measurement": "Kill rate in % after 7d", "setting": "[3]", "result": 100, "unit": "%"}, {"measurement": "Kill rate in % after 7d", "setting": "[4]", "result": 100, "unit": "%"}]}
{"smiles": "Cc1cc(C)c(C2=C(O)C(C)(C)C(C)(C)OC2=O)c(C)c1", "note": "[Ex. I-a-7]", "values": [{"measurement": "Kill rate in % at active compound concentration in ppm", "setting": "[8]", "result": 20, "unit": "ppm = 100%"}, {"measurement": "Kill rate in % after 6d", "setting": "[6]", "result": 90, "unit": "%"}]}
{"smiles": "Cc1cc(-c2ccc(Cl)cc2)cc(C)c1C1=C(O)C(C)(C)COC1=O", "note": "[Ex. I-a-13]", "values": [{"measurement": "Kill rate in % after 7d", "setting": "[4]", "result": 100, "unit": "%"}]}
